Assay results taken from patent US10800794B2, “Heterocycle-substituted bicyclic azole pesticides” (priority 2015, dated 2020).

System: sweetpotato whitefly (Bemisia tabaci (Gennadius))
Experiment: Test D: control of sweetpotato whitefly through contact and/or systemic means, sprayed cotton plant infested with eggs
Format: in vivo
Settings: sprayed at 50 ppm, assessed after 13 days at 28° C.
Description: Test compounds were formulated using a solution containing 10% acetone, 90% water and 300 ppm X-77® Spreader Lo-Foam Formula non-ionic surfactant containing alkylarylpolyoxyethylene, free fatty acids, glycols and isopropanol (Loveland Industries, Inc. Greeley, Colo., USA). The formulated compounds were applied in 1 mL of liquid through a SUJ2 atomizer nozzle with ⅛ JJ custom body (Spraying Systems Co. Wheaton, Ill., USA) positioned 1.27 cm (0.5 inches) above the top of each test unit. Test compounds were sprayed at the rates indicated, and each test was replicated three times.
For evaluating control of the sweetpotato whitefly (Bemisia tabaci (Gennadius)) through contact and/or systemic means, the test unit consisted of a small open container with a 12-14-day-old cotton plant inside. Prior to the spray application, both cotyledons were removed from the plant, leaving one true leaf for the assay. Adult whiteflies were allowed to lay eggs on the plant and then were removed from the test unit. Cotton plants infested with at least 15 eggs were submitted to the test for spraying.
Test compounds were formulated and sprayed at 250 and/or 50 ppm. After spraying, the test units were allowed to dry for 1 hour. […] Each test unit was then visually assessed for insect mortality.

With `CN(C)C(=O)C(C)(C)NC(=O)c1csc2nc(-c3cncc(F)c3)cn12` [Compound 14] the mortality was “at least 80%”.
